{"source": "patent US20060111258A1", "about": "“Solid N-acylalanine or a salt thereof” (AJINOMOTO CO., INC., priority 2003, published 2006)", "key": {"[1]": {"assay": "Evaluation of moisture absorbability during preservation (automatic vapor absorption measurement)", "format": "physicochemical", "settings": "average equilibrated moisture at humidity 70% RH, measurement temperature 25° C.", "procedure": "2. Evaluation of Moisture Absorbability During Preservation: The moisture absorbability was measured under the following measurement conditions and using an automatic vapor absorption measurement apparatus “BELSORP18” manufactured by BELL JAPAN, INC. Measurement conditions: X air thermostatic tank temperature: 50° C.; X measurement temperature: 25° C.; X MAX intake pressure: 0.9×Ps (Ps: saturated vapor pressure at measurement temperature); X MIN exhaust pressure: 0.1×Ps (Ps: saturated vapor pressure at measurement temperature); and X equilibration time: 5 min. Evaluation: Average equilibrated moisture of less than 5% at humidity 70% RH is ⊙, not less than 5% to less than 10% is ◯, not less than 10% to less than 15% is A, not less than 15% is x."}, "[2]": {"assay": "Evaluation of caking during preservation", "format": "physicochemical", "settings": "solid N-acylalanine salt; powder 25 g under 770 g spindle, 50° C., 24 hours, visual", "description": "3. Evaluation of Caking During Preservation […] […] 6. Evaluation of Caking During Preservation: The measurement apparatus and measurement conditions were the same as in the aforementioned 3."}}}
{"smiles": "CCCCCCCCCCCC(=O)NC(C)C(=O)[O-].[K+]", "note": "(racemic) [Example 1, lauroyl-DL-alanine potassium salt]", "values": [{"measurement": "moisture absorbability during preservation", "setting": "[1]", "result": "⊚"}, {"measurement": "caking during preservation", "setting": "[2]", "result": "⊚"}]}
